Publication PMC7048932, “Examining sterically demanding lysine analogs for histone lysine methyltransferase catalysis” (Scientific Reports, 2020)

Columns and labels:
GLP [1] = molecular target: T1, GLP (Homo sapiens, UniProt Q9H9B1); experiment: MALDI-TOF MS methylation assay of H3K9 peptides with GLP; type: biochemical; details: peptide 100 µM, 37 °C
T1 construct: His6 (N); made in house; host or cells: E. coli BL21 (DE3)pLysS-rosetta
T1 sequence (Q9H9B1 1-1298): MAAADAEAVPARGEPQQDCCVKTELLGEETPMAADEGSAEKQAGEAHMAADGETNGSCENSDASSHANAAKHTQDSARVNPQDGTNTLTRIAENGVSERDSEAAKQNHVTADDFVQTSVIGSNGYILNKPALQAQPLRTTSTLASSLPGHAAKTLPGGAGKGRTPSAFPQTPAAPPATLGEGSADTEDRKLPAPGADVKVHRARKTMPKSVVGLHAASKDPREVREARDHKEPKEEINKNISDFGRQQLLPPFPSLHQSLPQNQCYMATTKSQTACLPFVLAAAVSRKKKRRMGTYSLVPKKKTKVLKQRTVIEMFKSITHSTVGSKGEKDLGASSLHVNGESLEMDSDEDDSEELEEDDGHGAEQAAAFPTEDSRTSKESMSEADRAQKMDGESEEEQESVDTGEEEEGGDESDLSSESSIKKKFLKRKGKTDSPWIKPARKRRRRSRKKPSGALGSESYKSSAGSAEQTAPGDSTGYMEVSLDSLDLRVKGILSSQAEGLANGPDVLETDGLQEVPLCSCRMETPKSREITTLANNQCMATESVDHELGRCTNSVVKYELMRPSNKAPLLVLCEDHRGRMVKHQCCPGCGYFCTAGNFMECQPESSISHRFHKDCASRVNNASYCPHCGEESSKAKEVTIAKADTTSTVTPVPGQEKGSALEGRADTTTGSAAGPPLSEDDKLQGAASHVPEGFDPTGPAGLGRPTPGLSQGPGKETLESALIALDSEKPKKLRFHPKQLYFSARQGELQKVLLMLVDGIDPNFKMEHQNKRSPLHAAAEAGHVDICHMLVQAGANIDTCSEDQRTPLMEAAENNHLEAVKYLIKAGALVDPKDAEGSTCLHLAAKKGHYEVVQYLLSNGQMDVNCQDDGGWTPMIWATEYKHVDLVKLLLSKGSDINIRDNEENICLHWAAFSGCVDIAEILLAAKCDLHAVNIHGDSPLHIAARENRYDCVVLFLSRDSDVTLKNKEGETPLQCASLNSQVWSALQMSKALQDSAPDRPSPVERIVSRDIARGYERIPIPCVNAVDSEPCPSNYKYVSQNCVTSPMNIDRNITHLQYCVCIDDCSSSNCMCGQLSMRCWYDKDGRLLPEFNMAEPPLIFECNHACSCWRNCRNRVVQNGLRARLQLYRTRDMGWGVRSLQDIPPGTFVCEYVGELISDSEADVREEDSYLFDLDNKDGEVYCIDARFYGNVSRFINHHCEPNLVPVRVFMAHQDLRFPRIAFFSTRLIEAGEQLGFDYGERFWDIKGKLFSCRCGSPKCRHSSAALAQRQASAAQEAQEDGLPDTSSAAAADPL
Method: MALDI-MS methyltransferases activity experiments were performed using a Bruker instrument in the reflectron positive mode. For regular methyltransferase standard conditions experiment which carried out in 30 µL total volume, the mixture contains peptide (100 µM), SAM (200 µM), SETD8 or SETD7 (2 µM), in assay buffer 50 mM Tris at optimal pH 8.0. In case of G9a and GLP, similar conditions were used, except (500 µM) of SAM was added to the reaction mixture. […] A 5 µL aliquot of the solution was mixed with 5 µL of MeOH, after which 5 µL of this mixture was mixed with 5 µL of α-cyano-4-hydroxycinamic acid matrix (CHCA, 5 mg/mL in 125:125 µL acetonitrile/water). The spots were placed on a stainless steel MALDI plate (MS 96 target ground steel BC of Bruker, Germany). The mass corresponding to one monomethylation observed as +14 Da, dimethylation observed as +28 Da and trimethylation observed as +42 Da. The enzymatic activity was determined by taking the peak areas of each methylation state, including all isotopes and adducts, and was annotated using FlexAnalysis software (Bruker Daltonics, Germany). […] Methylated peptide substrates were repeated five times and the unmethylated substrates were triplicated. Sequences of the examined peptides are given in (Supplementary Table 1).

GLP [2] = molecular target: T1, GLP; experiment: NMR assay of GLP-catalyzed methylation of H3K9 peptides; type: biochemical; details: peptide 400 µM, GLP 8 µM, SAM 2 mM, 50 mM Tris-d11.HCl pD 8.0, 1 h, 37 °C
[3] = GLP 10 µM, SAM 1 mM, 5 h, MALDI-MS

GLP-catalyzed methylation, result in words (GLP [1]; GLP 2 µM, SAM 500 µM, 1 h, MALDI-TOF MS): traces detected | GLP-catalyzed methylation, result in words, increased GLP/SAM (GLP [1]; [3]): monomethylation | GLP-catalyzed monomethylation, increased GLP/SAM (GLP [1]; [3]): 55% | GLP-catalyzed methylation by 1H NMR / 1H-13C HSQC, result in words (GLP [2]): not methylated
Substance: ARTKQTAR(Kba9)STGGKA [H3Kba9]
